The source of these data is US9417245B2, “Porphyrinic compounds for use in flow cytometry” (North Carolina State University, priority 2005, dated 2016).

The nature of data set [1]: Absorption spectroscopy of chlorins (B and Qy bands, log ε, B/Qy ratio). The class given is physicochemical. The note with it: for ΔvQy: Example 2 Table 2, redshift relative to the parent chlorin (ZnC or Zn-M^10).
Source text: (§1) The spectral properties of interest in the chlorins include the position of the long-wavelength Qy transition, the intensity of the Qy transition, and the fluorescence quantum yield of the chlorin. The intensity of the Qy transition can be assessed by the measured molar absorption coefficient; however, comparisons of such values are somewhat unreliable given the experimental variability encountered upon handling small quantities of materials. A better comparison is achieved by examination of the ratio of the intensities of the B and Qy bands for a given compound (B/Qy ratio), which is determined simply by absorption spectroscopy without requiring determination of the molar absorption coefficient. For a wide variety of applications, bathochromic and hyperchromic shifts of the Qy band are desired (i.e., shifted to longer wavelength and intensified), thereby affording strong absorption in the deep-red region.
^1H NMR (400 MHz) and ^13C NMR (75 MHz) spectra were collected at room temperature in CDCl3. Absorption spectra were obtained in toluene at room temperature. Chlorins were analyzed by laser desorption mass spectrometry (LD-MS) in the absence of a matrix. Fast atom bombardment mass spectrometry (FAB-MS) data are reported for the molecule ion or protonated molecule ion. Melting points are uncorrected. All commercially available materials were used as received. All palladium-coupling reactions were carried out using standard Schlenk-line techniques.
as §1, with “increased” for “intensified), thereby affording strong absorption”, “intensity).” for “the deep-red region.”
^1H NMR (400 MHz) and ^13C NMR (75 MHz) spectra were collected at room temperature in CDCl3 unless noted otherwise. Absorption spectra were obtained in toluene at room temperature. Chlorins were analyzed by laser desorption mass spectrometry (LD-MS) in the absence of a matrix. Metalation of free base chlorins was monitored by fluorescence spectroscopy. Melting points are uncorrected. All commercially available materials were used as received.

Data set [2] can be described thus: Fluorescence spectroscopy (emission bands, fluorescence quantum yield). Format: physicochemical. The settings on record: in toluene at room temperature. The procedure: The fluorescence spectra and fluorescence quantum yields reported herein were collected in toluene at room temperature. Measurements of fluorescence quantum yield (Φf) were carried out using chlorin Zn-11 (Φf=0.065) as a standard.^16

For data set [3] the following is noted: literature, cited from earlier work; for Qy band position: FIG. 3, natural pigments, in diethyl ether.

Values joined by “and” are separate entries in the source; they are usually repeats but may differ in a detail not shown here. Identical values can stand only once. Like-named read-outs stand apart in the source and are kept apart here.

In the case of `Cc1cc(C)c(C2=c3cc(C#C[Si](C(C)C)(C(C)C)C(C)C)c4[n]3[Zn][n]3c(ccc3C=C3N=C(C=4)CC3(C)C)C=C3C=CC2=N3)c(C)c1` [ZnC-M^10E^13, Zn(II)-13-[2-(Triisopropylsilyl)ethynyl]-17,18-dihydro-10-mesityl-18,18-dimethylporphyrin], the “ΔvQy” value in data set [1] (toluene) stood at 530 cm⁻¹. For the same compound, the Qy band position in data set [1] (in toluene at room temperature) was determined as 626 nm.
With `CC(=O)c1cc2[n]3c1=CC1=NC(=Cc4ccc([n]4[Zn]3)C(c3ccc(C)cc3)=C3C=CC(=N3)C=2c2c(C)cc(C)cc2C)C(C)(C)C1` [Zn-1, Zn(II)-13-Acetyl-17,18-dihydro-10-mesityl-18,18-dimethyl-5-p-tolylporphyrin], in data set [1] (in toluene at room temperature), the B band position turned out to be 424 nm; the “B/Qy band intensity ratio” value was found to be 2.9; the Qy band position is 632 nm and 635 nm. The “log ε (Qy band)” value in data set [1] (molar absorption coefficient comparison, toluene) came out at 4.75. Moreover, in data set [2], the “strong Qy(0,0) / dominant fluorescence band” value was “around 641 nm”.
For `Cc1cc(C)c(C2=c3cc(C#C[Si](C(C)C)(C(C)C)C(C)C)c4[n]3[Zn][n]3c(cc(C#C[Si](C(C)C)(C(C)C)C(C)C)c3C=C3C=CC2=N3)C=C2N=C(C=4)CC2(C)C)c(C)c1` [ZnC-E^3M^10E^13, Zn(II)-3,13-Bis[2-(triisopropylsilyl)ethynyl]-17,18-dihydro-10-mesityl-18,18-dimethylporphyrin], in data set [1] (toluene), the “ΔvQy” value was found to be 1020 cm⁻¹. Further, the Qy band position in data set [1] (in toluene at room temperature) stood at 646 nm.
On the same counts, the results for `CC(=O)c1cc2[n]3c1C=C1CC(C)(C)C(=N1)C=c1cc(C#C[Si](C(C)C)(C(C)C)C(C)C)c([n]1[Zn]3)=CC1=NC(=C2c2c(C)cc(C)cc2C)C=C1` [ZnC-E^3M^10A^13, Zn(II)-13-Acetyl-3-[2-(triisopropylsilyl)ethynyl]-17,18-dihydro-10-mesityl-18,18-dimethylporphyrin] are 1160 cm⁻¹ and 652 nm.
Regarding `C=Cc1cc2[n]3c1C=C1C=CC(=N1)C(c1c(C)cc(C)cc1C)=c1ccc([n]1[Zn]3)=CC1=NC(=C2)C(C)(C)C1` [ZnC-V^3M^10], the “ΔvQy” value in data set [1] (toluene) stood at 400 cm⁻¹. Moreover, the Qy band position in data set [1] (in toluene at room temperature) was determined as 621 nm.
For the compound `CC(=O)c1cc2[n]3c1C=C1CC(C)(C)C(=N1)C=c1ccc([n]1[Zn]3)=CC1=NC(=C2c2c(C)cc(C)cc2C)C=C1` [ZnC-M^10A^13, Zn(II)-13-Acetyl-17,18-dihydro-10-mesityl-18,18-dimethylporphyrin], the “ΔvQy” value in data set [1] (toluene) worked out at 680 cm⁻¹. Moreover, in data set [1] (in toluene at room temperature), the “B/Qy band intensity ratio” value worked out at 2.2 and the Qy band position amounted to 632 nm.
For the compound `C=Cc1c(C)c2cc3nc(c4c5[n-]c(cc6nc(cc1[n-]2)C(C)=C6CC)c(C)c5C(=O)[C@@H]4C(=O)OC)[C@@H](CCC(=O)OC/C=C(\C)CCC[C@H](C)CCC[C@H](C)CCCC(C)C)[C@@H]3C.[Mg+2]` [chlorophyll a], the Qy band position in data set [3] was 662 nm. Further, in data set [3] (chlorophyll a), the B band position was 430 nm and the “B/Qy band intensity ratio” value was 1.3.
For `C=Cc1c(C)c2cc3nc(c4c5[n-]c(cc6nc(cc1[n-]2)C(C=O)=C6CC)c(C)c5C(=O)[C@@H]4C(=O)OC)[C@@H](CCC(=O)OC/C=C(\C)CCC[C@H](C)CCC[C@H](C)CCCC(C)C)[C@@H]3C.[Mg+2]` [chlorophyll b], the Qy band position in data set [3] is 644 nm and 642 nm.
For the compound `Cc1ccc(-c2c3nc(c(-c4c(C)cc(C)cc4C)c4cc5c([nH]4)c(c4nc(cc6ccc2[nH]6)C(C)(C)C4)CC5=O)C=C3)cc1` [Compound 2, 18,18-Dimethyl-10-mesityl-13^1-oxo-5-p-tolylphorbine], in data set [1] (in toluene at room temperature), the Qy band position was 660 nm.
Turning to pheophytin a, the Qy band position in data set [3] is 667 nm.
